Data on 19 compounds can be found in ChEMBL document CHEMBL1201862, “PubChem BioAssay data set” (2004).

Molecules are shown by their SMILES. Calls of active or inactive are those of the source. Some results are limits rather than exact numbers.

One assay has as its target T1, Coagulation factor XII (Homo sapiens, UniProt P00748).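 Note: activated factor XIIa alpha cleaving a fluorogenic AMC peptide substrate; inhibitor potency from loss of enzyme activity.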
T1 sequence (P00748 whole entry): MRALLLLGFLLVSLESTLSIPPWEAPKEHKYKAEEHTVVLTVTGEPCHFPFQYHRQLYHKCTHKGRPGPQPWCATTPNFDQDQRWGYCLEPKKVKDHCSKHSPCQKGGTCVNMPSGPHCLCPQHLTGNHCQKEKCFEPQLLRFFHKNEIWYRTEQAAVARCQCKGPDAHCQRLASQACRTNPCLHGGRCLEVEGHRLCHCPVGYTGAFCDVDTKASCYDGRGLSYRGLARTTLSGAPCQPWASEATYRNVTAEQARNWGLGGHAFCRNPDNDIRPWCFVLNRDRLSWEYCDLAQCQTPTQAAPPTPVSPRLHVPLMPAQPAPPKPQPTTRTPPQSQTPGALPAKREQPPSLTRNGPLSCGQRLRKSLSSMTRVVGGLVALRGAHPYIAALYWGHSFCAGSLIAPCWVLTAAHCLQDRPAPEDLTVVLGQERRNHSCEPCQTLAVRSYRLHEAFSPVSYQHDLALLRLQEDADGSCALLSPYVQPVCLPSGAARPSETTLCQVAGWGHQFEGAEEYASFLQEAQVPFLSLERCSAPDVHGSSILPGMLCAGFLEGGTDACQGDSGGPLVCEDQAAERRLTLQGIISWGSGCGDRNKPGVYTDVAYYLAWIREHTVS
The format is functional.

Assay [1] addresses T2, Fatty acid synthase (Homo sapiens, UniProt P49327). Kind of assay: FAS thioesterase domain inhibitors, dose response, biochemical, kinetic fluorescence intensity (AID 624326).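 Note: rate of fluorescence rise from hydrolysis of a fluorogenic O-methyl fluorescein ester substrate.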 Format: functional.
Assay [2] deals with T2, Fatty acid synthase. Briefly: FAS thioesterase domain inhibitors, dose response, biochemical, endpoint fluorescence intensity, uHTS hits (AID 624327).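 Note: fluorescence from hydrolysis of an O-methyl fluorescein acyl ester substrate by the enzyme.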 The format is functional.
Another assay concerns H4. Kind of assay: Luminescence Cell-Based Dose Response HTS to Identify Activators of 5'UTR Stem-Loop Driven Prion Protein mRNA Translation in H4 Neuroglioblastoma Cells. [Related pubchem assays: 1829 (Project Summary), 1814 (Primary HTS)]. Format: functional. As to conditions: Homo sapiens.
Assay [3] is described as follows: Luminescence Cell-Based Dose Response HTS to Identify Activators of Luciferase Translation or Activity in H4 […] Cells. [Related pubchem assays: 1829 (Project Summary), 1814 (Primary HTS)]. Format: functional.
Assay [4] can be described thus: Luminescence Cell-Based Dose Confirmation HTS to Identify Activators of 5'UTR Stem-Loop Driven Alpha-Synuclein mRNA Translation in H4 Neuroglioblastoma Cells. [Related pubchem assays: 1829 (Project Summary), 1814 (Primary HTS)]. Format: functional.
The target of another assay is Large T antigen (Simian virus 40, UniProt P03070). Format: functional, Betapolyomavirus macacae.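 Note: Confirmatory-stage PubChem screen for compounds that inhibit SV40 T antigen.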
Sequence of Large T antigen (P03070 whole entry): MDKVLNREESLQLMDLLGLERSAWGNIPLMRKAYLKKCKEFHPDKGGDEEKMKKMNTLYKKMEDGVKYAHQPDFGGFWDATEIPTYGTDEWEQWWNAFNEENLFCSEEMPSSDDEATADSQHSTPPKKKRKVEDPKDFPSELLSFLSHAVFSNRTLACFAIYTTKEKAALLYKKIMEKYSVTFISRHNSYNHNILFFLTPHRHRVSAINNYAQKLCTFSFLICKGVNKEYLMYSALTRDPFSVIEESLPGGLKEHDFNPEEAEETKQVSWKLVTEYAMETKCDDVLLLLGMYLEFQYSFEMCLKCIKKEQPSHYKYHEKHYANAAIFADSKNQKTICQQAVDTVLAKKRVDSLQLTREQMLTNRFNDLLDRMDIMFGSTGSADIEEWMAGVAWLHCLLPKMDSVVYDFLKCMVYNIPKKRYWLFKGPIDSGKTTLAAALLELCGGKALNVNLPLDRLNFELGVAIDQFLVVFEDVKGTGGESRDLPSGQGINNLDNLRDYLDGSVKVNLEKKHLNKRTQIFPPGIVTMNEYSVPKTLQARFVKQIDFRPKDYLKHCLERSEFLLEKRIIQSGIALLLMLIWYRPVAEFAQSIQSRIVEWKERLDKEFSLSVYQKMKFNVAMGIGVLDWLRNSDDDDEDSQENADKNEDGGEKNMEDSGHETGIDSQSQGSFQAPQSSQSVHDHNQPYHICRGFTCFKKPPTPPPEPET
Another assay has as its target Cytochrome P450 3A4 (Homo sapiens, UniProt P08684).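 Note: CYP3A4 tested as one member of a cytochrome P450 panel screen.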
The target in a further assay is Cytochrome P450 2C9 (Homo sapiens, UniProt P11712).
Sequence of Cytochrome P450 2C9 (P11712 whole entry): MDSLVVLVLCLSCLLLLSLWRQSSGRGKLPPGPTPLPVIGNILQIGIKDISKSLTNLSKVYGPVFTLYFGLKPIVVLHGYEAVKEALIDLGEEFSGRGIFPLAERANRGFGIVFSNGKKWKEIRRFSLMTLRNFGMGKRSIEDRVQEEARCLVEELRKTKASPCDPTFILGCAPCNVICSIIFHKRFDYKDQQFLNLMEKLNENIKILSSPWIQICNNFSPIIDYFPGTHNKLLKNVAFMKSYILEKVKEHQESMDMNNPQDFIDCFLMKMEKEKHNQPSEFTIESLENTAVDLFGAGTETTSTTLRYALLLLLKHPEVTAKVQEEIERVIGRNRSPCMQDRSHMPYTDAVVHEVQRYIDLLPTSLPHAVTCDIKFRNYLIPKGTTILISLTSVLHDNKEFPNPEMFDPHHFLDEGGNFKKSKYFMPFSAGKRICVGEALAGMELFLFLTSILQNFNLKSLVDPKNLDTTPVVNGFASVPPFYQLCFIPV
For another assay, the target named is Cytochrome P450 2C19 (Homo sapiens, UniProt P33261). Kind of assay: Cytochrome panel assay with activity outcomes. Panel member name: p450-cyp2c19 Compounds with AC50 equal or less than 10 uM are considered active. Format: functional. As to conditions: read-out: AC50.
Sequence of Cytochrome P450 2C19 (P33261 whole entry): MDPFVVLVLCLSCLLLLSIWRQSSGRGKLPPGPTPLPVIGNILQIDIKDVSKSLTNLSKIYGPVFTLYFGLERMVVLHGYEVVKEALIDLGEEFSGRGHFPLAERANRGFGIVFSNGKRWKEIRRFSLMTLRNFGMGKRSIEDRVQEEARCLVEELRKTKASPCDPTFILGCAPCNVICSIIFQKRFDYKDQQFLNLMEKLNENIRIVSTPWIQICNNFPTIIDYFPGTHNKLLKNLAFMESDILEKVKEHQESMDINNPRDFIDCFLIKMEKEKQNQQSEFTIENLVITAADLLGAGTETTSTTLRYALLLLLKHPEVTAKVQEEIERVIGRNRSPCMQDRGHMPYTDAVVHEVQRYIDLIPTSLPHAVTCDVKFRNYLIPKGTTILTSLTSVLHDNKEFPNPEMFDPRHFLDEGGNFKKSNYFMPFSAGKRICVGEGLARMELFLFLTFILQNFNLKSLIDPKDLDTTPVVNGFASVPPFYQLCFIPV
The target of assay [5] is T3, Rac GTPase-activating protein 1 (Homo sapiens, UniProt Q9H0H5).
T3 sequence (Q9H0H5 whole entry): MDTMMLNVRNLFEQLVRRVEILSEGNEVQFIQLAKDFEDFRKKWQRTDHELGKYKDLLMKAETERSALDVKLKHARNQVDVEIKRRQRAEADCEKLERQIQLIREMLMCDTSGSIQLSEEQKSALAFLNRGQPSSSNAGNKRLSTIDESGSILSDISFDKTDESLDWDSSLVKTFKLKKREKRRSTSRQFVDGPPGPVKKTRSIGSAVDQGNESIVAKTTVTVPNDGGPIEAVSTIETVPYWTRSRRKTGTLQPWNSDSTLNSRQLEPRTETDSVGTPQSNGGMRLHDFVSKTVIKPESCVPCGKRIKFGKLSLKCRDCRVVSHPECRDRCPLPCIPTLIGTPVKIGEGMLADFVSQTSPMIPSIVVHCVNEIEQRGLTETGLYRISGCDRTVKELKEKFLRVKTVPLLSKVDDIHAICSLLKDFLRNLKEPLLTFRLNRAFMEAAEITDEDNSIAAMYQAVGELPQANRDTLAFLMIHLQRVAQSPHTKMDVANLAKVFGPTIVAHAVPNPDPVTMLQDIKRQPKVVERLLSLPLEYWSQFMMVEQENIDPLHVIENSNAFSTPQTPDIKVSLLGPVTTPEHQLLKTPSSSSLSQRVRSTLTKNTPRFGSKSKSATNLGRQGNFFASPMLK
Briefly: MgcRacGAP GTPase-activating activity inhibitors, confirmation, biochemical, ADP Hunter fluorescence, primary and confirmatory (AID 624330). Format: functional.

Assay [6] is described as follows: growth suppression of PTEN-null colon cells, dose response, cell-based, HCT116 PTEN knockout (AID 1047).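 Note: HCT116 colon tumor cells with PTEN knocked out; cells exposed to compound for 60 hours before readout; potency for loss of cell viability measured by luminescence.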 The format is functional.
Assay [7] in a line: growth suppression of beta-catenin-knockout colon cells, dose response, cell-based, HCT116, human colon tumor (AID 1045).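 Note: HCT116 colon tumor cells with beta catenin knocked out; cells exposed to compound for 60 hours.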 The format is functional.
Assay [8] has as its target T4, RNA-binding protein pos-1 (Caenorhabditis elegans, UniProt G5EF15).
T4 sequence (G5EF15 whole entry): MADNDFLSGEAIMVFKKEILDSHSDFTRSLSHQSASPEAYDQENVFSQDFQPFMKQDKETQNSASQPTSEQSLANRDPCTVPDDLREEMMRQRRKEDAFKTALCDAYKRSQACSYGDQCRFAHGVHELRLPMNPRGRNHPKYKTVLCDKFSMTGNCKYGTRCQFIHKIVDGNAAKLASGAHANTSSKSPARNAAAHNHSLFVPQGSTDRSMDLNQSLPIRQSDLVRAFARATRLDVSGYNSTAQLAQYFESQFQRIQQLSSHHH
Briefly: inhibitors of POS-1/mex-3 RNA binding, dose response, biochemical, fluorescence polarization (AID 1964).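 Note: purified POS-1 fused to maltose binding protein made in E. coli; potency of compounds blocking POS-1 binding to fluorescent RNA.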

The target of assay [9] is T5, Zinc finger protein mex-5 (Caenorhabditis elegans, UniProt Q9XUB2).
T5 sequence (Q9XUB2 whole entry): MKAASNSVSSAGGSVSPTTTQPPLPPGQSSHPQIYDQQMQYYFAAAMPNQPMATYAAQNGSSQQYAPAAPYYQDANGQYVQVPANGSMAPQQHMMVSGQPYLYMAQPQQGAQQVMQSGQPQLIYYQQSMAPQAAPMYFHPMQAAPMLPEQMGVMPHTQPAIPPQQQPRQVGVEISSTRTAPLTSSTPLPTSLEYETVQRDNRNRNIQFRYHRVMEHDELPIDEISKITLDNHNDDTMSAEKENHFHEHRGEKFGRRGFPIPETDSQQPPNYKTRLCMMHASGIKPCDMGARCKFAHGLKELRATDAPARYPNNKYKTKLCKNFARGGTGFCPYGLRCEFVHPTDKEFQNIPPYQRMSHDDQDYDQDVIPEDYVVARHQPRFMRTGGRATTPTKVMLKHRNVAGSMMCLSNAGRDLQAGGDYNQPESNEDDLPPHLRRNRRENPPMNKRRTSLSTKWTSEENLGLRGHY
Briefly: MEX-5/TCR-2 RNA interaction inhibitors, dose response, biochemical, C. elegans, fluorescence polarization (AID 1960).

For a further assay, the target named is T6, Cytochrome P450 1A2 (Homo sapiens, UniProt P05177).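 Note: PubChem cytochrome P450 panel assay, CYP1A2 panel member.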
T6 sequence (P05177 whole entry): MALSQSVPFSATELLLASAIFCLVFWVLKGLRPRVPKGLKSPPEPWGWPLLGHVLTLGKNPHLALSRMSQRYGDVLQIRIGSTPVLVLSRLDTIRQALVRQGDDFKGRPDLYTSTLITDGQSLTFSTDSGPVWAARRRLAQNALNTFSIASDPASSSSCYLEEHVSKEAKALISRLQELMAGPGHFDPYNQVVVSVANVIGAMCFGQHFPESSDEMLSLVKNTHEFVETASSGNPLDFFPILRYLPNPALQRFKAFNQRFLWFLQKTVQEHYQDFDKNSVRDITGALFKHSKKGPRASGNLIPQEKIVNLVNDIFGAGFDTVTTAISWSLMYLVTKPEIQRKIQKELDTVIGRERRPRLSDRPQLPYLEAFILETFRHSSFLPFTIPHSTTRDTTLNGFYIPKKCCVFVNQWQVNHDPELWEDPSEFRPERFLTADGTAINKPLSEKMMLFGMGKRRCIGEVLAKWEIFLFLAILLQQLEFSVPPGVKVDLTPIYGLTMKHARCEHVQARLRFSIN

Assay [10] has as its system Streptococcus sp. 'group A'. Kind of assay: growth inhibition of control SK(-) GAS strain, dose response, counter-screen for streptokinase expression inhibitor project, luminescence, kanamycin, BacTiterGlo, confirmation (AID 1900). Format: functional, organism-based.
Another assay deals with T7, Streptokinase A (Streptococcus pyogenes serotype M1, UniProt P10520).
T7 sequence (P10520 whole entry): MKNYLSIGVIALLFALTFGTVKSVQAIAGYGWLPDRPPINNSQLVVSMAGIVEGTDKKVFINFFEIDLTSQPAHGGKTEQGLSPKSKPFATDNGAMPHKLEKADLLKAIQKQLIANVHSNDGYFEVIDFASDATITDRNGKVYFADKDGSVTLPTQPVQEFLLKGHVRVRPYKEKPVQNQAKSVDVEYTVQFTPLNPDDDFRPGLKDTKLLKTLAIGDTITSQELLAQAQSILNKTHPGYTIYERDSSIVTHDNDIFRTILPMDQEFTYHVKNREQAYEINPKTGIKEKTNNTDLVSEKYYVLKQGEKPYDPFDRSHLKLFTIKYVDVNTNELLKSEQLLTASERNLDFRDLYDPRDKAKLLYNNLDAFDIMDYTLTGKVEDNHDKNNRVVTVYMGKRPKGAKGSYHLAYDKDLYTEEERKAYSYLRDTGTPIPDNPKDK
Briefly: S. pyogenes streptokinase expression inhibitors, potency, dose response, plasminogen activation absorbance, OD405 (AID 1914).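 Note: secreted streptokinase activity via plasminogen activation per viability signal from cell pellet.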 Format: functional, Streptococcus pyogenes M1 GAS.

The test system of the next assay is Streptococcus. Briefly: Group A Streptococcus viability loss, dose response, counter-screen for streptokinase expression inhibitor project, luminescence, BacTiterGlo (AID 1915).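 Note: potency for reduction of bacterial viability or growth.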 The format is functional, organism-based.
Assay [11] can be described thus: HEp-2 cell cytotoxicity, dose response, cytotoxicity control for RSV inhibitor project, HTS (AID 2410). Format: functional. As to conditions: human respiratory syncytial virus.

Sequence of Cytochrome P450 3A4 (P08684 whole entry): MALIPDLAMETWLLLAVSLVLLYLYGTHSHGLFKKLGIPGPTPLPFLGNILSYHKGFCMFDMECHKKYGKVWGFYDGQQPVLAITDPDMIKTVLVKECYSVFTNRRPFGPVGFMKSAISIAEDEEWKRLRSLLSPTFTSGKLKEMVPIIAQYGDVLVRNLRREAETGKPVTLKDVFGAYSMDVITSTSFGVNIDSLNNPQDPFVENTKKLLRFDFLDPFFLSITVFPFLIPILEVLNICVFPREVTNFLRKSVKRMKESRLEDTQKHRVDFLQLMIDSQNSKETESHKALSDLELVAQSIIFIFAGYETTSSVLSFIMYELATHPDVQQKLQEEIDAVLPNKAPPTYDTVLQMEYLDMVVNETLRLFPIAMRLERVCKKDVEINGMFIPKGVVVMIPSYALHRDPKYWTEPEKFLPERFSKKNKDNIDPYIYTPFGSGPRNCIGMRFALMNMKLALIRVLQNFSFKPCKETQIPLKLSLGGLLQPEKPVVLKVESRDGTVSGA
T2 sequence (P49327 whole entry, the tested form may be a part): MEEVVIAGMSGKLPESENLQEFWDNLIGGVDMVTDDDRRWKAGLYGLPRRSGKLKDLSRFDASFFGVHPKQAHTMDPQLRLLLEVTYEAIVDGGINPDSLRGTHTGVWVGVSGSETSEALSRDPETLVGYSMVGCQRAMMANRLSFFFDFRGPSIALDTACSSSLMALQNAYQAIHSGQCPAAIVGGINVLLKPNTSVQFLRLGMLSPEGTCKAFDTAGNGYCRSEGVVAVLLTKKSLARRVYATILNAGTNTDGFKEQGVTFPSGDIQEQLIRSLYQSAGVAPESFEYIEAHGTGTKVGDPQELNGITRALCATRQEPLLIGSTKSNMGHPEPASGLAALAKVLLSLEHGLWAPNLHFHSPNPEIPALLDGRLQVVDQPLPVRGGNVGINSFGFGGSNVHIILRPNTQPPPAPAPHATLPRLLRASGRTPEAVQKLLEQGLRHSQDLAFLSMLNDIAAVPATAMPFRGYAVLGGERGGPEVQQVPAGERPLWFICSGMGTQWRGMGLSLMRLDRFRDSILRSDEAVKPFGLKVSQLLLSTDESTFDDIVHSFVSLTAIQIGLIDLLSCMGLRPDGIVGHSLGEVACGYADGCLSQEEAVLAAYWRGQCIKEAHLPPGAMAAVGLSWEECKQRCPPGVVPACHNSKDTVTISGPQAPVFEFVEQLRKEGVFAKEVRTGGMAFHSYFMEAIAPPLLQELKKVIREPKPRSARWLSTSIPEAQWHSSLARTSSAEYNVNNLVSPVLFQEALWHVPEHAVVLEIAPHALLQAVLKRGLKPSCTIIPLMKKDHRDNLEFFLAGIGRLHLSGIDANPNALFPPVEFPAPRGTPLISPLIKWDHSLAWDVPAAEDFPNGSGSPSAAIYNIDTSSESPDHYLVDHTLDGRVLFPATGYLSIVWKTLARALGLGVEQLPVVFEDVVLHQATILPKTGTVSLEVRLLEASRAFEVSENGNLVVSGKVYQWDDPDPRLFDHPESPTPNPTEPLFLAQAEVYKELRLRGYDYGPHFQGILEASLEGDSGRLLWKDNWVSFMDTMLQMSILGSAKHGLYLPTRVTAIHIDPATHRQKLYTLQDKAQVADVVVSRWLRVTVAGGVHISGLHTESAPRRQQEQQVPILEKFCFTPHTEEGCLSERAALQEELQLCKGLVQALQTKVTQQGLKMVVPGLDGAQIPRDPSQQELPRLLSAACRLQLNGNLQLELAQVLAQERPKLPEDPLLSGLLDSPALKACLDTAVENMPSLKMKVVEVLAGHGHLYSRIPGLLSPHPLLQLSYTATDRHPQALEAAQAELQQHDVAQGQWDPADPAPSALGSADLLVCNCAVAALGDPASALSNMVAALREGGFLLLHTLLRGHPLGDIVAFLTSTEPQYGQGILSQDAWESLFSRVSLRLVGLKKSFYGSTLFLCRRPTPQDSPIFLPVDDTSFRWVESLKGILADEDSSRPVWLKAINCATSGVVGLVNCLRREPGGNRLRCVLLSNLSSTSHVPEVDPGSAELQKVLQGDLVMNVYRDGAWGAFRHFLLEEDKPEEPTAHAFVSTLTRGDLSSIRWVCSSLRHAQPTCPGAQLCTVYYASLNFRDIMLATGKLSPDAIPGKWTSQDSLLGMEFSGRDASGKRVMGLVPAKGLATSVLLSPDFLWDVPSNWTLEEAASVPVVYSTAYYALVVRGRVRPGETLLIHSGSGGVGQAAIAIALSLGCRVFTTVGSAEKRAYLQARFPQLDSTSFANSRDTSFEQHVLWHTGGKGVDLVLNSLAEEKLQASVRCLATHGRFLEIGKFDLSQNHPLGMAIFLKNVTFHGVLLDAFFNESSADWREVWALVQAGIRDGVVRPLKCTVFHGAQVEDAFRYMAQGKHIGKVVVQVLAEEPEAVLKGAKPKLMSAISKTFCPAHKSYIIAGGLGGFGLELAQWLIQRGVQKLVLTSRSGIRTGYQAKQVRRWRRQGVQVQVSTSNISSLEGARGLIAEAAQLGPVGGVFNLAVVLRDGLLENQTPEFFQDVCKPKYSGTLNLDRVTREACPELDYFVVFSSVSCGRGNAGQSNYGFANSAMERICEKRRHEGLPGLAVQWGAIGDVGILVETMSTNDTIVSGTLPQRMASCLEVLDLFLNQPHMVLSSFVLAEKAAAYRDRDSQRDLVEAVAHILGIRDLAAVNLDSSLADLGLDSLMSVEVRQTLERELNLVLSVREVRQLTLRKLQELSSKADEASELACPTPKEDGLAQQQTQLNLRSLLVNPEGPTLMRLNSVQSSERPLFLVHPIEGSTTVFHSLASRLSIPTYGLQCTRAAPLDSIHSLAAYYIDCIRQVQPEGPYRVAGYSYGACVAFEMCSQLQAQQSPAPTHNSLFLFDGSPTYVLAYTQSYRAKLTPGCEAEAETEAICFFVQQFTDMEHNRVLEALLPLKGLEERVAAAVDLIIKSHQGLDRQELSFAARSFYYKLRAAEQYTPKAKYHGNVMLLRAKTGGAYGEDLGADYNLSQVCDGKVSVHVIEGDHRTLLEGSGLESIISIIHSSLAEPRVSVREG

With `COC(=O)CC1C(=O)NCCN1C(=S)Nc1cccc(C)c1` (configuration not stated), on Coagulation factor XII, the IC50 is > 50 µM (inactive).

For `CCOc1cccc2cc(C(=O)NCCC3=CCCCC3)c(=O)oc12`, the 50% inhibitory concentration (IC50) at Fatty acid synthase [1] is 4.15 µM (active); on Fatty acid synthase [2], 3.95 µM (active). Also, the EC50 was 25 µM (active) with H4, > 120 µM (not active) in [3] and 7.15 µM (active) in assay [4].

In the case of `O=C(c1ccc2ncsc2c1)N1CCN(c2ccc(O)cc2)CC1`, the half-inhibitory concentration (IC50) on Large T antigen was 14.4 µM (active). Further, the AC50 on Cytochrome P450 3A4 is 3.55 µM (inconclusive); at Cytochrome P450 2C9, 1.78 µM (inconclusive); on Cytochrome P450 2C19, 20 µM (inconclusive).

Consider `C/N=c1\scc(C)n1/N=C/c1ccc(O)cc1`, for which the IC50 in assay [5] is 20.9 µM (active); at Large T antigen, 8.35 µM (active).

As for `Nc1nc(-c2cccs2)c(NC(=O)c2ccccc2)s1`, the EC50 in assay [6] was 27.4 µM (active); in assay [7], 23.8 µM (active). In addition, the half-maximal inhibitory concentration (IC50) on Large T antigen was 23.2 µM (active).

Turning to `O=C(CN=C(S)N(Cc1ccccc1)Cc1ccccc1F)NCCc1ccccc1`, on Coagulation factor XII, the IC50 was > 50 µM (inactive).

Regarding `COc1cccc(N2C(=O)/C(=C/c3ccc(C)o3)C(=O)NC2=S)c1`, the results for the 50% effective concentration (EC50) in assay [8] and in [9] were > 300 µM (not active) and 44.5 µM (active), respectively.

For the compound `COCCNC(=O)CC(NS(=O)(=O)c1ccc(C)cc1)c1ccco1` (configuration not stated), on Coagulation factor XII, the IC50 is > 50 µM (inactive).

As to `CC(=O)Nc1ccc(NC(=O)CSc2ncnn2-c2ccccc2)cc1`, the IC50 at Coagulation factor XII was > 50 µM (inactive). In addition, the AC50 is 28.2 µM (inconclusive) on Cytochrome P450 1A2, 28.2 µM (inconclusive) on Cytochrome P450 3A4 and 12.6 µM (inconclusive) on Cytochrome P450 2C9.

For the compound `CCNc1ccc(N=Nc2c(C)n(C)n(-c3ccccc3)c2=O)cc1`, the IC50 on Large T antigen is 7.88 µM (active).

In the case of `CN1C(=O)C(=Cc2c[nH]c3ccc(Br)cc23)C(=O)N(C)C1=O`, the 50% effective concentration (EC50) in [8] and in assay [9] was > 300 µM (not active) throughout.

Consider `COc1ccccc1N1CC(C(=O)Nc2nnc(SCC(=O)NC(C)C)s2)CC1=O` (configuration not stated), for which the EC50 in [8] and in assay [9] was > 300 µM (not active) each time.

For `CC1CCOC2(O1)C(=O)Nc1ccccc12` (configuration not stated), the IC50 on Coagulation factor XII was > 50 µM (inactive).

Turning to `O=C(N/N=C/c1ccc(O)c(O)c1)c1cccc(S(=O)(=O)N2CCCCC2)c1`, the IC50 was 85.3 µM (active) in [5] and 4.75 µM (active) on Large T antigen.

As for `Cc1sc(NC(=O)c2ccco2)c(CN2CCN(c3ccc(F)cc3)CC2)c1C`, the IC50 at Coagulation factor XII was > 50 µM (inactive).

Regarding `O=C(N/N=C/c1cc(Cl)cc([N+](=O)[O-])c1O)C(O)(c1ccccc1)c1ccccc1`, the EC50 in assay [8] is > 300 µM (not active); in assay [10] it was 3.8 µM (active); in assay [9], 40.2 µM (active); on Streptokinase A it was > 150 µM (not active); with Streptococcus it was 7.21 µM (active).

On to `O=C1NC(=S)N(c2ccccc2F)C(=O)/C1=C/Nc1ccc(N2CCOCC2)cc1`, for which, on Large T antigen, the 50% inhibitory concentration (IC50) was 4.54 µM (active).

For the compound `Cc1ccc2nc(NC(=O)C3CCCN(S(=O)(=O)c4cccc5nsnc45)C3)sc2c1` (configuration not stated), the IC50 on Coagulation factor XII is > 50 µM (inactive). The 50% cytotoxic concentration (CC50) in assay [11] is 29.4 µM (active).

As to `CCOC(=O)C1=C(Nc2ccccc2)S/C(=C\c2cn(CC(=O)N3CCCC3)c3ccccc23)C1=O`, the values for the 50% effective concentration (EC50) in assay [8] and in [9] were 47.5 µM (active) and 26.2 µM (active), respectively.
